According to US20200102349A1, “PEPTIDE REAGENTS AND METHODS FOR DETECTION AND TARGETING OF DYSPLASIA, EARLY CANCER AND CANCER” (THE REGENTS OF THE UNIVERSITY OF MICHIGAN, priority 2014, published 2020):
Each block holds one substance with its values, some of them ahead of it. Where no end group is shown, it is not given here.

Assays:
[1] = system: colonic dysplasia (flat lesions and polyps); experiment: In vivo NIR fluorescence endoscopy of colon in CPC;Apc mouse; details: for mean (±SD) log of the T/B ratio: topical 100 μM, 5 min incubation
Method: For the in vivo fluorescence images of mouse colon, the T/B ratios for flat dysplasia and polyps were log-transformed to improve normality. The fold-change between classification pairs was estimated using the anti-log of the difference in the log-transformed data. Differences in results between the experimental and control peptides were evaluated on t-test. *P<0.05 was considered significant. Similar methods were used to evaluate the ex vivo fluorescence images of human colonic specimens. The results were plotted on a receiver-operator characteristic (ROC) curve. Co-localization of peptide and antibody binding was evaluated on Pearson's correlation coefficient. All analyses were performed using custom Matlab software (MathWorks Inc).
Mouse imaging studies were performed with approval of the University of Michigan Committee on the Use and Care of Animals (UCUCA). The mice were housed in pathogen-free conditions and supplied water ad libitum under controlled conditions of humidity (50±10%), light (12/12 hour light/dark cycle) and temperature (25° C.). Anesthesia was induced and maintained via a nose cone with inhaled isoflurane mixed with oxygen at a concentration of 2-4% at a flow rate of ˜0.5 L/min. The colon was first rinsed with tap water to remove mucous and debris. White light illumination was used first to identify anatomic landmarks, including polyps, mucosal folds, colonic segment, and distance of endoscope tip from anus, to register images with histology. The Cy5.5-labeled peptides were delivered at a concentration of 100 μM in a volume of 1.5 mL through the 3 Fr instrument channel. After 5 min for incubation, the colon was rinsed 3× with a tap water to remove the unbound peptides. After imaging was completed, the mice were euthanized. The colon was resected, and divided along the longitudinal axis. Flat lesions and polyps were identified on fluorescence, excised perpendicular to the mucosal surface, and processed for histology (H&E). We collected images from mice (n=5) that ranged in age from 7 to 10 months.
Imaging was performed using a small animal endoscope (Karl Storz Veterinary Endoscopy).^39 A xenon light source provides white light illumination via a fluid light cable. A diode-pumped solid state laser (TechnicaLaser Inc) provides excitation at λex=671 nm. The laser beam is expanded to a diameter of 3 mm to fill the aperture of the light cable. The laser power at the tip of the endoscope is <2 mW. The white light images reflect off a dichroic mirror (Semrock Inc, # FF685-Di02-25×36, λc=685 nm), and are focused by an achromatic doublet (Edmund Optics Inc, #32-323). They pass through a neutral density filter (OD 1), and are detected by a color camera (Point Grey Research, # GX-FW-28S5C-C). The fluorescence images pass through the dichroic and a band pass filter (Semrock Inc, # FF01-716/40-25, λC=716 nm, Δλ=40 nm), and are focused on a monochrome camera (Point Grey Research, # GX-FW-28S5M-C). All videos (1932×1452 resolution) are recorded at 15 frames per sec via a firewire connection.
White light and fluorescence videos were exported in avi format with 24 (RGB) and 8 (grayscale) bit digital resolution for the color and fluorescence images, respectively. […] Individual frames were exported using custom Matlab software. On the fluorescence images, 3 regions of interest (ROI, 25×25 pixels) were picked at random within the dysplastic lesion and within adjacent areas of normal-appearing mucosa. The mean intensities within these ROI's on the fluorescence images were measured. The target to-background (T/B) ratio for each image was determined by ratioing the mean intensities of these two ROIs.

SW480 cells = experiment: Peptide binding to colorectal cancer cells on confocal microscopy (SW480); format: cell-based, human; details: SW480, 5 μM, 3 min
Method: (§1) HT29, SW480, and SW620 cells (˜10^3) were grown on cover slips to ˜80% confluence. The cells were washed 1× with PBS and incubated with 5 μM of QRH*-Cy5.5 and PEH*-Cy5.5 for 3 min at RT. The cells were then washed 3× in PBS, fixed with 4% paraformaldehyde (PFA) for 5 min, washed 1× with PBS, and then mounted on glass slides with ProLong Gold reagent containing DAPI (Invitrogen). Confocal fluorescence images were collected with FITC, Cy5.5, and DAPI filters (Leica Inverted SPSX Confocal Microscope System) using a 63× oil-immersion objective. Fluorescence intensities from 5 cells in 2 independent images were quantified using custom Matlab (Mathworks) software.
(§2) We assessed binding of QRH*-Cy5.5 to a panel of colorectal cancer cells that vary in EGFR expression level on confocal microscopy. We observed binding of QRH*-Cy5.5 to the surface (arrows) of HT29, SW480, and SW620 cells with decreasing strength, FIG. 3A-C, scale bars 30 μm. […] Results are an average of 10 cells from 2 independent images. EGFR expression is shown on Western blot, FIG. 3H.

EGFR [2] = target: T1, EGFR (Homo sapiens, UniProt P00533); experiment: siRNA knockdown of EGFR in HT29 cells, confocal fluorescence microscopy; format: cell-based; parameters: endogenous in cells; host or cells: HT29 human colorectal adenocarcinoma cells (ATCC)
Method: as §1
We used siRNA to knockdown expression of EGFR in HT29 cells. We used ON-TARGETplus human EGFR siRNA and ON-TARGETplus non-targeting pool (Thermo Scientific) per manufacturer's protocol. 5 μL of siRNA at 5 μM/L concentration was transfected into HT29 cells using DharmaFECT (Thermo Scientific). QRH*-Cy5.5 and PEH*-Cy5.5 were incubated with HT29 siEGFR and siCL cells. The cells were fixed with either 4% PFA or methanol. A 1:1000 dilution of primary monoclonal mouse anti-EGFR antibody (Thermo Scientific, # MS-396, clone 199.12, IgG2a isotype) was incubated overnight at 4° C. Afterwards, the cells were washed 3× with PBS, and further incubated with 1:500 dilution of AF488-labeled secondary goat anti-mouse IgG antibody (Life Technologies, # A-11029) for 1 hour at RT, washed 3×, and then mounted on glass slides with ProLong Gold reagent containing DAPI (Invitrogen). Confocal fluorescence images were collected with FITC, Cy5.5, and DAPI filters using a 63× oil-immersion objective.
We validated specific binding of QRH*-Cy5.5 to EGFR on siRNA knockdown in HT29 cells. On confocal microscopy, QRH*-Cy5.5 (red), FIG. 2A, and AF488-labeled anti-EGFR (green), FIG. 2B, bind strongly to the surface (arrows) of control HT29 cells (transfected with siCL, non-targeting siRNA), scale bars 30 μm. […] The results (mean±std) for QRH*-Cy5.5, anti-EGFR AF488, and PEH*-Cy5.5 to control cells (siCL) were 7.8±1.7, 3.1±1.0, and 1.6±0.3 AU, respectively, and to EGFR knockdown cells (siEGFR) were 2.5±0.8, 1.0±0.4, and 1.9±0.7 AU, respectively, *P<0.01 by paired t-test, FIG. 2G. Results are an average of 10 cells from 2 images performed independently. EGFR expression is shown on Western blot, FIG. 12H.

SW620 cells = experiment: Peptide binding to colorectal cancer cells on confocal microscopy (SW620); format: cell-based, human; details: SW620, 5 μM, 3 min
Method: as §1, §2

HT29 cells [3] = experiment: Peptide binding to colorectal cancer cells on confocal microscopy (HT29); format: cell-based, human; details: HT29, 5 μM, 3 min
Method: as §1, §2

[4] = system: OE21 human esophageal SCC cells; experiment: Binding of FITC-labeled peptide to esophageal SCC cells on confocal microscopy; format: cell-based
Method: We have further validated specific binding of the FITC-labeled peptide to EGFR on co-localization with anti-EGFR antibody. A total of ˜7.5×10^3 OE21 cells were grown to ˜70% confluence on cover slips and fixed with methanol for 5 min at ˜20° C. The cells were incubated for 2 hours at RT with 1:500 dilution of primary anti-EGFR mAb (199.12, Neomarkers). The cells were incubated with 1:500 dilution of secondary Cy5.5-labeled antibody for 1 hour at RT, and mounted with ProLong Gold with DAPI (Invitrogen). On confocal microscopy, we observe specific binding of Cy5.5-labeled anti-EGFR antibody (red) to the membrane (arrow) of OE21 cells, FIG. 8A. We then added the FITC-labeled peptide to the OE21 cells. After 10 min for incubation at 37° C., co-localization of the peptide (green) with the antibody (red) to the membrane (arrow) of OE21 cells can be observed, FIG. 8B.

HT29 cells [5] = experiment: Apparent dissociation constant on flow cytometry; format: binding, human; details: 4° C., 1 hour
Method: We measured the apparent dissociation constant of the peptide to HT29 cells as an assessment of binding affinity. QRH*-Cy5.5 was serially diluted in PBS at concentrations of 0, 10, 25, 50, 75, 100, 125, 150 and 200 nM. HT29 cells (˜10^5) were incubated with QRH*-Cy5.5 at 4° C. for 1 hour, washed with cold PBS, and the mean fluorescence intensities were measured on flow cytometry. The equilibrium dissociation constant kd=1/ka was calculated by performing a least squares fit of the data to the non-linear equation […]. I0 and Imax are the initial and maximum fluorescence intensities, corresponding to no peptide and at saturation, respectively, and [X] represents the concentration of the bound peptide [Thomas et al., Clin Exp Metastasis, 26:105-119 (2009)]. Origin 6.1 data analysis software (OriginLab Corp) was used to calculate kd.

HT29 cells [6] = experiment: Apparent association time constant on flow cytometry; format: binding, human
Method: We measured the apparent association time constant of the peptide to HT29 cells as an assessment of binding onset. HT29 cells were grown to […] confluence in 10 cm dishes, and detached with PBS-based cell dissociation buffer (Invitrogen). Cells (˜10^5) were incubated with 5 μM QRH*-Cy5.5 at 4° C. for various time intervals ranging from 0 to 20 min. The cells were centrifuged, washed with cold PBS, and fixed with 4% PFA. Flow cytometry analysis was performed as described above, and the median fluorescence intensity (y) was ratioed with that of HT29 cells without addition of peptide at different time points (t) using Flowjo software. The rate constant k was calculated by fitting the data to a first order kinetics model, y(t)=Imax[1−exp^(−kt)], where Imax=maximum value,^60 using Prism 5.0 software (GraphPad Inc).

tumor xenograft = details: systemic administration; cited from earlier work
EGFR [7] = target: T1, EGFR; details: read-out: binding affinity; cited from earlier work

fluorescence intensity (mean±std) (EGFR [2]; EGFR knockdown HT29 cells (siEGFR)): 1.9±0.7 AU
fluorescence intensity (mean±std) (EGFR [2]; control HT29 cells (siCL, non-targeting siRNA)): 1.6±0.3 AU
Substance: PEH*-Cy5.5: scrambled sequence PEHKRRQ (SEQ ID NO: 19) for control, Cy5.5-labeled (also: Cy5.5 label, site not given here) [reference compound]
mean (±SD) log of the T/B ratio ([1]; flat lesions (n=15)): 0.108±0.143
mean (±SD) log of the T/B ratio ([1]; polyps (n=15)): 0.186±0.233
NIR fluorescence signal from polyp and flat lesions in vivo ([1]; topical, distal colon, 5 min): minimal signal
fluorescence intensity of binding (mean±std) (SW480 cells): 1.2±0.3
fluorescence intensity of binding (mean±std) (SW620 cells): 0.8±0.3
fluorescence intensity of binding (mean±std) (HT29 cells [3]): 1.7±0.4

Substance: SHR*-FITC: FITC labeled SHRNRPRNTQPS (SHR*) (SEQ ID NO: 21) peptide (also: FITC label, site not given here)
binding on confocal fluorescence microscopy [4]: significantly increased fluorescence intensity
co-localization with Cy5.5-labeled anti-EGFR antibody ([4]; 10 min, 37° C.): co-localization

Substance: QRHKPRE
Kd (HT29 cells [5]): 50 nM
binding time scale (onset) (HT29 cells [6]): < 2.5 min
apparent association time constant k (HT29 cells [6]; 5 μM, 4° C., flow cytometry): 0.406 min⁻¹

Substance: YHWYGYTPQNVI
time of peak accumulation / binding activity in tumor xenograft after injection (tumor xenograft): 4 h
Kd (EGFR [7]): 22 nM
